Data reported in patent US9669005B2, “Use of naringenin in preparing drugs for preventing and/or treatment abdominal aortic aneurysm” (priority 2013, dated 2017).

Experiments:
Type in all cases: in vivo
[1] = system: abdominal aortic aneurysms in C57BL/6J mice with CaPO4 daubed infrarenal arteries; assay: Abdominal aortic aneurysm model induced by CaPO4 daubed infrarenal aortas, naringenin or doxycycline gavage; details: CaPO4 daubed C57BL/6 mice, daily gavage 7 days
Description: 12-week old of male C57BL/6 mice were anesthetized via intraperitoneal injection of 0.1% pentobarbital sodium (injection according to body weight, […]). Infrarenal abdominal aortas were separated, and the separated infrarenal abdominal aortas were packaged by gauze (1 cm in width×3 cm in length) soaked in 0.5 M CaCl2 solution. After 10 minutes, the gauze was removed, gauze soaked in PBS was instead used to package the blood vessel for 5 min. CaCl2+and PO4^−3 in PBS can form CaPO4 crystal, that is, corresponding to daubing CaPO4 to the blood vessel. After packaging the blood vessel with gauze soaked in NaCl for 10 minutes, gauze soaked in PBS is instead used for 5 min, serving as NaCl daubed control group.
Gavage was started at the first day after surgery, and water, naringenin (50 mg/kg) (Sigma-Aldrich, St. Louis, Mo.) or doxycycline (100 mg/kg) (Sigma-Aldrich, St. Louis, Mo.) gavage were given on mice daily. Materials were removed from the mice 7 days after gavage. Mice were weighed, and blood was drawn from inner canthus by capillary, after centrifuged for 10 minutes at 6000 rotations, the supernatant was removed and blood fat was measured (kit is purchased from BIOSINO company). Then perfusion and washing were performed on mice using PBS. Blood vessels were separated, and four blood vessels were randomly chosen for each group for photographing. The results were shown in FIG. 1, wherein, NaCl was the group of daubing NaCl (n=11), CaPO4 was the group of daubing CaPO4 plus water feed (n=12), CaPO4+NGN was the group of daubing CaPO4 μlus naringenin gavage (n=11), and CaPO4+Dox was the group of daubing CaPO4 μlus doxycycline gavage (n=11).
The blood vessels were sliced, and the change of the diameters in infrarenal abdominal aortas of mice were identified by H.E. staining. […] The data in FIG. 2A were an average value±standard deviation.
The fracture degree of elastic lamina is also an index showing the severity of abdominal aortic aneurysms. The degradation of elastic lamina is divided into four grades. The first grade means that the degradation of elastic lamina is less than 25%, with the second grade of 25%-50%, the third grade of 50%-75%, and the fourth grade means the fracture is more than 75%. We used Gomori staining to identify the fracture situation of elastic lamina of infrarenal abdominal aortas of mice. […] The data in FIG. 2B were an average value±standard deviation.

[2] = system: abdominal aortic aneurysms in angiotensin II induced ApoE-/- mice; assay: Abdominal aortic aneurysm model in ApoE-/- mice induced by angiotensin II submerging pump, naringenin gavage; details: AngII ApoE-/- mice
Description: Firstly, 16 weeks of male ApoE^−/− mice were randomly divided into two groups, control group (n=16) and naringenin group (n=15), respectively. And then they were anesthetized by 0.1% pentobarbital sodium, and mini pumps (model 2004, Alzet, Cupertino, Calif.) were subcutaneously submerged; angiotensin II (Sigma-Aldrich, St. Louis, Mo.) dissolved with normal saline was added to the pump, such that drugs can be continuously administrated for 4 weeks at a dosage of 1000 ng/kg/min. From the first day after surgery, gavage was daily performed to mice at constant time points, water gavage in control group, and naringenin gavage (50 mg/kg) in naringenin group. Materials were removed 28 days after gavage. Blood pressure of the mice was measured by tail cuff method with BP-89A sphygmomanometer (Beijing Softron Biotechnology Co., Ltd.), and the mice were weighted. Blood was drawn in inner canthus of the mice, and after centrifuged for 10 minutes at 6000 rotations, supernatant was removed and the blood fat levels of the mice were measured. […] Aortas of mice were fixed and separated. AngII group was the control group of angiotensin II submerging pump and water gavage. AngII+NGN group was the group of angiotensin II submerging pump and naringenin gavage. Four blood vessels were randomly selected in each group for photographing. The results were shown in FIG. 5A, the former two blood vessels in AngII group have significant bulges at suprarenal site, exceeding 50% of the diameters of the blood vessels at adjacent site, and arterial aneurysms are formed. […] Next, the statistics of the onset of abdominal aortic aneurysms in all the mice was performed. In the control group of angiotensin II submerging pump and water gavage, only one of 16 mice died from the fracture of aortic dissection within the first 7 days after submerging pump, another one died from the fracture of abdominal aortic aneurysms 1 week after submerging pump, abdominal aortic aneurysms were generated in 6 of the remaining 14 mice at 28th day after submerging pump. Therefore, in control group of angiotensin II submerging pump, aortic aneurysms were formed in 8 of 16 mice, that is, the morbidity of aortic aneurysms was 50%. And in the group of angiotensin II submerging pump and naringenin gavage, 1 of 15 mice died from the fracture of aortic aneurysms, only 1 of the remaining mice suffered from abdominal aortic aneurysms at 28 day after submerging pump. Therefore, in the group of angiotensin II submerging pump and naringenin gavage, only two of 15 mice suffered from aortic aneurysms, that is, the morbidity of aortic aneurysms was 13.3%. […] After removing materials from mice, aortas were perfused with 4% paraformaldehyde and fixed, the suprarenal aorta from diaphragm muscle to renal artery branch on the right side was equally divided into two segments, which were put into liquid nitrogen to freeze for 30 s after embedded with OCT. Serial sections were performed, the thickness of each section was 6 μm, with the spacing of 300 μm, and continuous 16 sections were performed on each mouse. H.E. staining was used to determine the diameters of abdominal aortas of mice, the diameters were measured and the maximum diameter was selected therefrom. The maximum diameter was compared with the diameter of adjacent site, and if the maximum diameter exceeds 50% of diameter of the adjacent site, it can be considered that the mouse suffered from an abdominal aortic aneurysm. […] We used Gomori staining to determine the fracture situation of the elastic lamina of abdominal aortas of mice, and statistics was performed. The results were shown in FIG. 6B, the fracture of the elastic lamina of abdominal aortas of mice decreases after naringenin gavage, and the mice detected in each group are all 6 mice. The data in Figure are an average value ±standard deviation.

metalloproteinase = assay: In situ zymography, angiotensin II model; details: AngII ApoE-/- mice; naringenin gavage; FIG. 8A
Description: After the aortas of mice were perfused with PBS, fresh tissue was directly embedded with OCT, put in liquid nitrogen for freezing, and then continuously sliced. Firstly, washing was performed with PBS for 3 min, thrice. A fluorescently labeled DQ-gelation-FITC substrate (Sigma-Aldrich, St. Louis, Mo.) was incubated 1 hour at 37° C. Under normal circumstances, fluorescent label for the substrate was packaged, so there is no fluorescence; after activated gelatinase degraded gelatin, green fluorescent label would be exposed. After the section was incubated, washing was performed with PBS for 3 min, thrice, and then the section was sealed. Immunofluorescence confocal microscopy was used to irradiate. The stronger fluorescence was, which means, the stronger activity of matrix metalloproteinase was.

## O=C1C[C@@H](c2ccc(O)cc2)Oc2cc(O)cc(O)c21 [naringenin]
[1]; FIG. 2B
  fracture of elastic lamina of infrarenal abdominal aortas (Gomori staining): reverse the effect of CaPO4
[1]; naringenin 50 mg/kg, doxycycline 100 mg/kg, average ± SD, CaPO4 + water 1.40±0.19, NaCl 0.77±0.06
  diameters of infrarenal abdominal aortas (H.E. staining): 1.03±0.18 mm
[1]; naringenin 50 mg/kg, doxycycline 100 mg/kg, vascular photos FIG. 1
  incidence rate and degree of bulge of blood vessels at infrarenal site: reduce the incidence rate and degree of bulge
[2]; naringenin 50 mg/kg gavage 28 days, 15 mice, control 50%
  morbidity of aortic aneurysms: 13.3%
[2]; naringenin 50 mg/kg gavage 28 days, FIG. 5A
  formation of abdominal aortic aneurysms (vascular photos): reduce the formation of abdominal aortic aneurysms
[2]; naringenin gavage, 11 mice per group, FIG. 6A
  maximum diameter of suprarenal abdominal aortas (H.E. staining): significantly decreases
[2]; naringenin gavage, FIG. 6B
  fracture of the elastic lamina of abdominal aortas (Gomori staining): decreases
[2]; naringenin gavage, of 15 mice
  Dissection (number of mice): 0
  Fracture (number of mice): 1
  Without aneurysm (number of mice): 13
[2]; naringenin gavage, of 15 mice, 28th day
  aneurysm (number of mice): 1
metalloproteinase
  activated metalloproteinase (in situ zymography): significantly decreases
